Measurements from patent US12239643B2, “Therapeutic agent for inflammatory diseases, autoimmune diseases, fibrotic diseases, and cancer diseases” (MEIJI SEIKA PHARMA CO., LTD., priority 2018, dated 2025).
pIC50: −log10 of the molar value.

Tested on: PDE4
Test: Evaluation of PDE4 inhibitory activity, scintillation proximity assay
Assay type: biochemical
Conditions: scintillation proximity assay; class symbols of Evaluation 1; read-out: PDE4 Inhibitory Activity (concentration for the inhibition rate of 50%, IC50), Evaluation 1
How it was run: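 SPA with [2,8-3H]-cAMP and diluted PDE4 enzyme preparation in 50 mM Tris-HCl pH 7.4, 8.3 mM MgCl2, 1.7 mM EGTA, 3 mg/mL BSA, 120 min at room temperature. Product captured on ZnSO4-containing YSi-SPA beads, scintillation counted; IC50 from inhibition curves vs DMSO control and no-enzyme blank.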

SMILES | pIC50
CC(=O)c1cc(-c2nccs2)c2oc(N3CC4CC(C3)N4)nc2c1 [Example 109, 1-(2-(3,6-Diazabicyclo[3.1.1]heptan-3-yl)-7-(thiazol-2-yl)benzo[d]oxazol-5-yl)ethan-1-one] | > 7.00
N#CCOc1ccc(-c2nccs2)c2oc(N3CC4CCC(C3)N4)nc12 [Example 82, 2-((2-(3,8-Diazabicyclo[3.2.1]octan-3-yl)-7-(thiazol-2-yl)benzo[d]oxazol-4-yl)oxy)acetonitrile] | > 7.00
OC(O)(c1cc(-c2nccs2)c2oc(N3CC4CC(C3)N4)nc2c1)C(F)(F)F [Example 158, 1-(2-(3,6-Diazabicyclo[3.1.1]heptan-3-yl)-7-(thiazol-2-yl)benzo[d]oxazol-5-yl)-2,2,2-trifluoroethane-1,1-diol] | 6.00 to 7.00
O=C(c1ccc(-c2nccs2)c2oc(N3CC4CCC(C3)N4)nc12)N1CCCCC1 [Example 117, (2-(3,8-Diazabicyclo[3.2.1]octan-3-yl)-7-(thiazol-2-yl)benzo[d]oxazol-4-yl)(piperidin-1-yl)methanone] | > 7.00
COc1cc(-c2nccs2)c2oc(N3CC4CCCC(C3)N4)nc2c1 [Example 62, 2-(3,9-Diazabicyclo[3.3.1]nonan-3-yl)-5-methoxy-7-(thiazol-2-yl)benzo[d]oxazole] | > 7.00
FC(F)(F)c1c(Cl)cc(-c2ccccn2)c2oc(N3CC4CCC(C3)N4)nc12 [Example 11, 2-(3,8-Diazabicyclo[3.2.1]octan-3-yl)-5-chloro-7-(pyridin-2-yl)-4-(trifluoromethyl)benzo[d]oxazole] | > 7.00
Clc1ccc(-c2nccs2)c2oc(N3CC4CCCC(C3)N4)nc12 [Example 38, 2-(3,9-Diazabicyclo[3.3.1]nonan-3-yl)-4-chloro-7-(thiazol-2-yl)benzo[d]oxazole] | > 7.00
OCc1ccc(-c2nccs2)c2oc(N3CC4CCC(C3)N4)nc12 [Example 132, (2-(3,8-Diazabicyclo[3.2.1]octan-3-yl)-7-(thiazol-2-yl)benzo[d]oxazol-4-yl)methanol] | > 7.00
FC(F)(F)COc1cc(-c2nccs2)c2oc(N3CC4CCC(C3)N4)nc2c1 [Example 66, 2-(3,8-Diazabicyclo[3.2.1]octan-3-yl)-7-(thiazol-2-yl)-5-(2,2,2-trifluoroethoxy)benzo[d]oxazole] | > 7.00
COCc1cc(-c2nccs2)c2oc(N3CC4CCC(C3)N4)nc2c1C(F)(F)F [Example 167, 2-(3,8-Diazabicyclo[3.2.1]octan-3-yl)-5-(methoxymethyl)-7-(thiazol-2-yl)-4-(trifluoromethyl)benzo[d]oxazole] | > 7.00

Same assay, conditions: scintillation proximity assay; read-out: PDE4 Inhibitory Activity (Evaluation 1; concentration for the inhibition rate of 50%)

SMILES | pIC50
CC(O)c1cc(-c2nccs2)c2oc(N3CC4CC(C3)N4)nc2c1OC(F)(F)F (centres unmarked) [Example 272, 1-(2-(3,6-Diazabicyclo[3.1.1]heptan-3-yl)-7-(thiazol-2-yl)-4-(trifluoromethoxy)benzo[d]oxazol-5-yl)ethan-1-ol] | > 7.00
COC(C)(C)C(F)(F)Oc1ccc(-c2nccs2)c2oc(N3CC4CC(C3)N4)nc12 [Example 393, 2-(3,6-Diazabicyclo[3.1.1]heptan-3-yl)-4-(1,1-difluoro-2-methoxy-2-methylpropoxy)-7-(thiazol-2-yl)benzo[d]oxazole] | > 7.00
OC1(c2cc(-c3nccs3)c3oc(N4CC5CC(C4)N5)nc3c2OC(F)(F)F)CC1 [Example 269, 1-(2-(3,6-Diazabicyclo[3.1.1]heptan-3-yl)-7-(thiazol-2-yl)-4-(trifluoromethoxy)benzo[d]oxazol-5-yl)cyclopropan-1-ol] | > 7.00
CC(O)C(F)(F)Oc1ccc(-c2cscn2)c2oc(N3CC4CC(C3)N4)nc12 (centres unmarked) [Example 309, 1-((2-(3,6-Diazabicyclo[3.1.1]heptan-3-yl)-7-(thiazol-4-yl)benzo[d]oxazol-4-yl)oxy)-1,1-difluoropropan-2-ol] | > 7.00
O=C(c1cc(-c2nccs2)c2oc(N3CC4CCC(C3)N4)nc2c1OC(F)(F)F)N1CCC1 [Example 192, (2-(3,8-Diazabicyclo[3.2.1]octan-3-yl)-7-(thiazol-2-yl)-4-(trifluoromethoxy)benzo[d]oxazol-5-yl)(azetidin-1-yl)methanone] | > 7.00
CCC(F)(F)Oc1ccc(-c2nccs2)c2oc(N3CC4CC(C3)N4)nc12 [Example 402, 2-(3,6-Diazabicyclo[3.1.1]heptan-3-yl)-4-(1,1-difluoropropoxy)-7-(thiazol-2-yl)benzo[d]oxazole] | > 7.00
NS(=O)(=O)c1ccc(-c2nccs2)c2oc(N3CC4CC(C3)N4)nc12 [Example 396, 2-(3,6-Diazabicyclo[3.1.1]heptan-3-yl)-7-(thiazol-2-yl)benzo[d]oxazole-4-sulfonamide] | > 7.00
OCCOC(c1ccc(-c2nccs2)c2oc(N3CC4CC(C3)N4)nc12)C(F)(F)F (centres unmarked) [Example 227, 2-(1-(2-(3,6-Diazabicyclo[3.1.1]heptan-3-yl)-7-(thiazol-2-yl)benzo[d]oxazol-4-yl)-2,2,2-trifluoroethoxy)ethan-1-ol] | > 7.00
CC(=O)c1ccc(-c2nccs2)c2oc(N3CC4CCC(C3)N4)nc12 [Example 245, 1-(2-(3,8-Diazabicyclo[3.2.1]octan-3-yl)-7-(thiazol-2-yl)benzo[d]oxazol-4-yl)ethan-1-one] | > 7.00
CNS(=O)(=O)c1ccc(-c2nccs2)c2oc(N3CC4CC(C3)N4)nc12 [Example 386, 2-(3,6-Diazabicyclo[3.1.1]heptan-3-yl)-N-methyl-7-(thiazol-2-yl)benzo[d]oxazole-4-sulfonamide] | > 7.00
CC(C)(O)C(Oc1ccc(-c2nccs2)c2oc(N3CC4CC(C3)N4)nc12)C(F)(F)F (centres unmarked) [Example 313, 3-((2-(3,6-Diazabicyclo[3.1.1]heptan-3-yl)-7-(thiazol-2-yl)benzo[d]oxazol-4-yl)oxy)-4,4,4-trifluoro-2-methylbutan-2-ol] | > 7.00
N#CCOC(c1ccc(-c2nccs2)c2oc(N3CC4CCC(C3)N4)nc12)C(F)(F)F (centres unmarked) [Example 228, 2-(1-(2-(3,8-Diazabicyclo[3.2.1]octan-3-yl)-7-(thiazol-2-yl)benzo[d]oxazol-4-yl)-2,2,2-trifluoroethoxy)acetonitrile] | > 7.00
CN(CCO)C(=O)C(F)(F)Oc1ccc(-c2nccs2)c2oc(N3CC4CC(C3)N4)nc12 [Example 407, 2-((2-(3,6-Diazabicyclo[3.1.1]heptan-3-yl)-7-(thiazol-2-yl)benzo[d]oxazol-4-yl)oxy)-2,2-difluoro-N-(2-hydroxyethyl)-N-methylacetamide] | > 7.00
CC(O)(c1ccc(-c2nccs2)c2oc(N3CC4CCC(C3)N4)nc12)C(F)(F)F (centres unmarked) [Example 236, 2-(2-(3,8-Diazabicyclo[3.2.1]octan-3-yl)-7-(thiazol-2-yl)benzo[d]oxazol-4-yl)-1,1,1-trifluoropropan-2-ol] | > 7.00
OCc1cc(-c2nccs2)c2oc(N3CC4CCC(C3)N4)nc2c1OC(F)(F)F [Example 201, (2-(3,8-Diazabicyclo[3.2.1]octan-3-yl)-7-(thiazol-2-yl)-4-(trifluoromethoxy)benzo[d]oxazol-5-yl)methanol] | > 7.00
CC(O)(c1cc(-c2nccs2)c2oc(N3CC4CCC(C3)N4)nc2c1OC(F)(F)F)C(F)(F)F (centres unmarked) [Example 217, 2-(2-(3,8-Diazabicyclo[3.2.1]octan-3-yl)-7-(thiazol-2-yl)-4-(trifluoromethoxy)benzo[d]oxazol-5-yl)-1,1,1-trifluoropropan-2-ol] | > 7.00
